Laboratory results from patent US20250041286A1, “CANCER TREATMENT USING KETOTIFEN IN COMBINATION WITH A CHECKPOINT INHIBITOR” (Materia Therapeutics Inc., priority 2021, published 2025).

System: MCA205 tumors
Assay: Vessel normalization, NG2/CD31 pericyte coverage and open lumen fraction
Assay type: in vivo, mouse
Description: To assess whether MC inhibition could normalize the structure of tumor blood vessels, which can further improve perfusion, the effect of ketotifen on vascular permeability was assessed. […] Instead, an upregulation of IFN-γ transcription levels in MCA205 tumors following 10 mg/kg ketotifen treatment was observed (FIG. 1D). IFNγ is an angiostatic protein whose concentration in the TME has been related to vessel normalization and reduced vessel leakiness.

CN1CCC(=C2c3ccccc3CC(=O)c3sccc32)CC1 [ketotifen]
fraction of vessels with open lumen (MCA205 tumors, CD31 image analysis): increase the fraction of vessels with open lumen
pericyte coverage of the tumor vasculature (NG2/CD31 colocalization) (ketotifen 5, 10 and 25 mg/kg compared to the lowest dose and untreated control): increase
